The text below walks through data of patent US20210008104A1, “COMPOSITIONS AND METHODS FOR INHIBITING HIV-1 REVERSE TRANSCRIPTASE” (The United States of America, as represented by the …, priority 2017, published 2021).

pKd: −log10 of the molar value. Entries after “also recorded” stand apart in the source; their conditions may differ.

The target of test [1] is T1, pol β-nicked DNA complexes (Homo sapiens, UniProt P06746).
T1 construct: made in house
Description: Time-lapse crystallography of the reverse reaction. As to the method: Binary complex crystals with nicked DNA were grown as previously described43. The time-lapse crystallography was performed as before11 and is briefly summarized here. Binary pol β/DNA complex crystals were first transferred to a cryosolution containing 15% ethylene glycol, 50 mM imidazole, pH 7.5, 20% PEG3350, 90 mM sodium acetate, 2 mM PNP and 50 mM CaCl2) for 1 h. These ground state (GS) ternary complex crystals were then transferred to a cryosolution containing 200 mM MgCl2 for varying times. All reactions were stopped by freezing the crystals at 100K before data collection at the home source, 1.54 Å, or the Advanced Photon Source, 1.0 Å (Argonne National Laboratory). In house data collection was done on a SATURN92 CCD detector system mounted on a […] rotating anode generator. This allows for anomalous data detection after phasing by molecular replacement. […] Initial models were determined using molecular replacement with the open binary (PDB ID 3ISB) or closed ternary (PDB ID 2FMS) structures of pol β and all Rfree flags were taken from the starting model. […] The metal-ligand coordination restraints were generated by ReadySet (PHENIX) and not used until the final rounds of refinement. […] Ramachandran analysis determined 100% of nonglycine residues lie in allowed regions and at least 97% in favored regions.

The target in test [2] is T2, human DNA polymerase β (Homo sapiens, UniProt P06746). The conditions noted are these: [32P]PPi into dCTP, slope/enzyme-DNA complex. As to the method: Pyrophosphate exchange assay. Pol β (2.5 μM) was pre-incubated with 500 nM unlabeled nicked DNA substrate containing a matched primer terminal base pair (G-C, template-primer) in reaction buffer with 20 mM MgCl2 and manually mixed (1:1, v/v) with a prewarmed solution of reaction buffer, 2 mM [^32P] PPi, and 100 μM dCTP. Aliquots were withdrawn at various time points and quenched with 1 vol. of 0.3 M EDTA. Quenched reactions mixtures were applied to PEI cellulose plates and developed in 0.3 M potassium phosphate buffer, pH 8.0. Plates were scanned followed by quantitation using a phosphorimager and ImageQuant software.

Test [3] deals with T2, human DNA polymerase β. The test is described as follows: Single-turnover analysis of reverse reaction (pyrophosphorolysis / PNP-dependent) on nicked DNA. It is filed as biochemical. The arrangement: made in house. On the procedure:
Reaction buffer. All kinetic measurements were performed in a buffer containing 50 mM MES, 25 mM Tris, 25 mM ethanolamine (pH 7.5 adjusted at 37° C.), 100 mM KCl, 10 mM MgCl2 supplemented with 10% glycerol, 100 μg/ml bovine serum albumin, 1 mM DTT, and 0.1 mM EDTA. […] DNA polymerase β was used to fill a 1-nucleotide gapped DNA substrate with either [^32P] dCTP or [^35S] dATP to create a 3'-radiolabeled nicked DNA substrate. The reaction mixture contained 50 mM Tris-Cl, pH 7.4 (37° C.), 100 mM KCl, 10 mM MgCl2, 1 mM DTT, 2.5 μM gapped DNA, […] [^32P] dCTP or [^35S] dATP. The single-nucleotide DNA substrate was similar to the nicked substrate described above, except the primer strand was one nucleotide shorter (3'-nucleotide deleted). Gap filling was initiated by addition of pol β and incubated at 37° C. for 5-10 min. The reaction was quenched by addition of 0.5 M EDTA (0.1 vol). To remove enzyme and unincorporated nucleotides, the mixture was extracted with phenol-chloroform-isoamyl alcohol (25:24:1) followed by two passages through BioSpin 6 columns. Aliquots of the labeling reaction were removed before and following the extraction and removal steps to determine final DNA substrate concentration. Pre- and post-aliquots (1 μl) were spotted onto PEI cellulose plates and developed in 0.375 M KH2PO4, pH 4.0. The ratio (post/preextraction) was used to correct the initial DNA concentration for loss or dilution of substrate. Kinetic parameters for the reverse reaction were determined under single turnover conditions (E/DNA=10) at 37° C. […] Time courses were initiated by mixing with an equal volume of a 20 mM MgCl2 and 50 μM dNTP trap solution in reaction buffer. The dNTP trap prevents re-insertion of radiolabeled product dNTP and corresponds to the identity of the nucleotide triphosphate produced during the reaction. […] EDTA (0.1 or 0.2 M) was used as the quenching agent. Substrates and products were resolved by TLC in either 0.2 or 0.3 M NaPi, pH 7.0 buffer. Kinetic analysis. Single-turnover time courses were fit to a single exponential equation to yield the first-order rate constants (kobs) at a given concentration of GMPPNP, PPi or PNP. Under these conditions, kobs was dependent on the concentration of substrate. A secondary plot of the concentration dependence of kobs was hyperbolic and fitted by nonlinear least-squares method to equation (1) where kmax is the intrinsic rate constant for the step limiting the first nucleotide insertion (forward reaction) or removal (reverse reaction). kobs=kmax[S]/[…] (1) […] Unless noted, kinetic constants represent best-fit parameters and their standard error.

For test [4], the target named is T2, human DNA polymerase β. Description: Overall equilibrium constant determination (gapped vs nicked DNA). It is filed as biochemical. The arrangement: made in house. The conditions noted are these: dCTP. On the procedure: A mixture of 500 nM pol β with single-nucleotide gapped DNA (pol/DNA=10; templating G or C) containing various concentrations of PPi (500-2,000 μM) or PNP (20, 50, 100 μM) was mixed with an equal volume of 20 mM MgCl2 containing 60-100 nM dCTP or 50 μM dGMPPNP and incubated at 37° C. for various time intervals. Aliquots (10 μl) were withdrawn at various times and quenched with an equal volume of 0.3 M EDTA. The reactions were quenched after 10-80 s and reaction products separated on a sequencing gel. The substrate (gapped DNA) and product (nicked DNA) bands were quantitated, and the overall equilibrium constant calculated; Keq=[nicked DNA][PPi]/[gapped DNA][dCTP] or [nicked DNA] [PNP]/[gapped DNA][dGMPPNP]. The mean and standard error for 6 independent determinations are reported in the text.

For test [5], the target named is T2, human DNA polymerase β. The test is described as follows: Removal of chain-terminated or mismatched primer termini by reverse reaction. The arrangement: made in house. Type of test: biochemical. The conditions noted are these: G-A or G-T primer terminal mismatch. As to the method:
The removal of a terminated primer terminus by the reverse reaction required enzymatic synthesis of the nicked DNA substrate. A pre-incubated mixture of 4 μM pol and 0.4 μM one-nucleotide gapped DNA was mixed 1:1 (v/v) with 20 mM MgCl2 and 0.2 μM various triphosphates of chain-terminating nucleotides ([…], or dFdCTP). The gap-filling reaction proceeded at 37° C. for 10-20 min to generate a terminated nicked DNA substrate. An aliquot was removed and quenched to verify complete gap filling (16-mer). The reverse reaction was initiated by addition of an equal volume of 10 mM MgCl2 and 250 μM PPi or PNP. An aliquot (time=3 min) was removed, quenched, and analyzed on a denaturing gel. The removal of a terminal mismatch by a reverse reaction was followed by incubation of […] Pol with 100 nM 5'-^32P-labeled nicked DNA substrate with a matched (G-C) or mismatched (G-A or G-T) primer terminal base pair for 5 min at 37° C. This was mixed with a solution of 20 mM MgCl2 and 2 mM PPi or PNP (1:1, v/v) to initiate the reaction.

The target of test [6] is T2, human DNA polymerase β. The test is described as follows: Qualitative reverse reaction assay with PPi analogs. It is filed as biochemical. The conditions noted are these: 1 mM PPi analog, 10 mM MgCl2, 5′-32P-labeled nicked DNA. The arrangement: made in house. On the procedure: Reverse reaction assay. Pol β (1 μM) was pre-incubated with 100 nM nicked DNA containing either a matched or mismatched primer terminus for 5 min at 37° C. in reaction buffer. A solution with 20 mM MgCl2 containing 2 mM PPi or pyrophosphate analog in reaction buffer was used to initiate the reaction. Following mixing, the final concentrations were 500 nM pol β, 50 nM nicked DNA, 10 mM MgCl2, and 1 mM PPi or pyrophosphate analog. Aliquots (5 or 10 μl) were removed at various times and quenched in an equal volume of 0.3 M EDTA, pH 8.0. Reaction substrates and products were separated and visualized as described above.

Test [7] concerns the target T2, human DNA polymerase β. Description: Gap filling DNA synthesis kinetic assay (single-turnover insertion). Type of test: biochemical. Further details: made in house. On the procedure: Gap filling DNA synthesis kinetic assay. To measure the rate of the first insertion (kpol) and apparent equilibrium nucleotide dissociation constant (Kd), single-turnover kinetic assays (enzyme/DNA=10) were performed as described previously. Briefly, a pre-incubated solution of enzyme and DNA was rapidly mixed with various concentrations of MgCl2 and dGMPPNP using a Kintek RQF-3 rapid quench-flow. Reactions were quenched with 0.25 M EDTA.
where S=dGMPPNP, PPi, or PNP. For the insertion of dGMPPNP, the secondary plot was fit to a quadratic equation (equation (2)) due to its high affinity relative to the enzyme concentration.
kobs=(kpol)(((Kd+[dGMPPNP]+[EDNA])((Kd+[dGMPPNP]+[EDNA])^2)−(4[dGMPPNP][EDNA]))^0.5)/2[EDNA] (2)

Where [8] appears, read: single-turnover gap filling, relative to natural nucleotide.

In the case of `O=P(O)(O)NP(=O)(O)O` [PNP, imidodiphosphate], the “complexes that had undergone a reverse reaction (occupancy refinement)” value in test [1] (short Mg2+ soak of PNP-Ca2+ ternary complex crystals) is reported as “approximately 40%”.
For `O=P(O)(O)OP(=O)(O)O` [PPi, pyrophosphate], the “observed rate for the exchange reaction” value at human DNA polymerase β [2] was found to be 0.028 s⁻¹. Also, the “reverse reaction in crystals” value in test [1] (binary pol β-nicked DNA crystals soaked with ligand) is recorded as “did not generate dNTP”. In addition, on human DNA polymerase β [3] (1 mM PPi, 3′-[32P]dAMP primer terminus, single-turnover), the “kobs for removal of 32P-labeled dAMP” value was determined as 0.030 s⁻¹. Besides, the “kobs for removal of 35S-labeled dAMP” value at human DNA polymerase β [3] (1 mM PPi, 3′-[35S]dAMP (phosphorothioate) primer terminus, single-turnover) worked out at 0.039 s⁻¹. Further, at human DNA polymerase β [3] (nicked DNA with 3′-[32P]dCMP, single-turnover, secondary plot of kobs, read-out: apparent PPi binding affinity (Kd)), the pKd was roughly 4.05. Further, the “observed rate constant for the reverse reaction (krev)” value on human DNA polymerase β [3] (nicked DNA, single-turnover (enzyme/DNA>1)) is roughly 0.03 s⁻¹. Further, at human DNA polymerase β [3] (removal of 3′-terminal Rp-phosphorothioate nucleotide vs dAMP), the “phosphorothioate (thio-elemental) effect krev(O)/krev(S)” value is listed as “no phosphorothioate elemental effect”. In addition, the calculated equilibrium constant at human DNA polymerase β [4] (1000 μM PPi) is given as 62,700; on human DNA polymerase β [4] (2000 M PPi), 82,300. At human DNA polymerase β [4] (different PPi concentrations, mean and standard error of 6 determinations), the “overall equilibrium constant Keq” value is recorded as 68,700±7,200. Also, the “removal of a 3′ mismatched nucleotide” value at human DNA polymerase β [5] is on record as “very poor”.
`O=P(O)(O)C(Cl)(Cl)P(=O)(O)O` [clodronate]: the “ability to serve as substrate for the reverse reaction (qualitative)” value on human DNA polymerase β [6] is “poor”.
Take `Nc1nc2c(ncn2[C@H]2C[C@H](O)[C@@H](COP(=O)(O)OP(=O)(O)NP(=O)(O)O)O2)c(=O)[nH]1` [dGMPPNP, 2′-deoxyguanosine-5′-[(β, γ)-imido]triphosphate]: the “inhibition of the forward reaction” value against human DNA polymerase β [7] (binds tightly and is inserted slowly) was “good inhibitor”. Moreover, at human DNA polymerase β [7] (setting [8]), the binding affinity entry is “increased” and the rate of insertion entry is given as “strongly diminished; also recorded: two orders of magnitude”.
In the case of `CC(O)(P(=O)(O)O)P(=O)(O)O` [etidronate], the “ability to serve as substrate for the reverse reaction (qualitative)” value at human DNA polymerase β [6] is on record as “moderate”.
Still for that read-out and setting: the same measure for `NCCC(O)(P(=O)(O)O)P(=O)(O)O` [pamidronate]: “poor”.
